Source: patent publication US10206937B2, “Boronic acid derivatives and therapeutic uses thereof” (Qpex Biopharma, Inc., priority 2014, dated 2019)

System: strains of Enterobacteriaceae producing various carbapenemases (class A, D and B; 104 strains)
Assay: Antibiotics potentiation by Compound 27 (MIC; meropenem, doripenem, ertapenem, cefepime)
Type: cell-based
Conditions: + 27 = with Compound 27 at fixed 4 μg/ml

Q: What does the source list for `COc1ccc2c(c1C(=O)O)OB(O)C(Sc1nnc(N)s1)C2` (centres unmarked) [C + 27]?
A: MIC (strain CF1012 Citrobacter freundii (KPC-2)): X (MIC of less than 1 μg/mL); MIC (strain CF1021 Citrobacter freundii (CMY-type; VIM-1)): X (MIC of less than 1 μg/mL); MIC (strain CF1022 Citrobacter freundii (SHV-12(2be), TEM-OSBL(2b); IMP-8)): X (MIC of less than 1 μg/mL); MIC (strain CF1023 Citrobacter freundii (SHV-12(2be), TEM-OSBL(2b); CTX-M-3; CMY-34; NDM-1)): X (MIC of less than 1 μg/mL); MIC (strain CL1080 Enterobacter cloacae (IMP-1)): Y (MIC of 1 μg/mL to 10 μg/mL); MIC (strain EA1019 Enterobacter aerogenes (SHV-5, VIM-1)): Y (MIC of 1 μg/mL to 10 μg/mL); MIC (strain EC1007 Escherichia coli (KPC-3)): X (MIC of less than 1 μg/mL); MIC (strain EC1061 Escherichia coli (NDM-1, CMY-6)): X (MIC of less than 1 μg/mL); MIC (strain EC1062 Escherichia coli (OXA-48, CTX-M-15)): X (MIC of less than 1 μg/mL); MIC (strain EC1064 Escherichia coli (NDM-1, CMY-6, CTX-M-15)): Z (MIC of greater than 10 μg/mL); MIC (strain EC1065 Escherichia coli (IMP-1)): X (MIC of less than 1 μg/mL); MIC (strain EC1068 Escherichia coli (VIM-1)): Y (MIC of 1 μg/mL to 10 μg/mL); MIC (strain EC1069 Escherichia coli (CTX-M-27; NDM-1)): X (MIC of less than 1 μg/mL); MIC (strain EC1070 Escherichia coli (TEM-OSBL(2b); CMY-42; NDM-5)): X (MIC of less than 1 μg/mL); MIC (strain EC1072 Escherichia coli (CTX-M-3; NDM-1)): Y (MIC of 1 μg/mL to 10 μg/mL); MIC (strain ECL1004 Enterobacter cloacae (NMC-A)): X (MIC of less than 1 μg/mL); MIC (strain ECL1026 Enterobacter cloacae (KPC-2, TEM-1)): X (MIC of less than 1 μg/mL); MIC (strain ECL1036 Enterobacter cloacae (KPC-3, TEM-1)): X (MIC of less than 1 μg/mL); MIC (strain ECL1045 Enterobacter cloacae (VIM-1)): Y (MIC of 1 μg/mL to 10 μg/mL); MIC (strain ECL1055 Enterobacter cloacae (KPC-3, TEM)): X (MIC of less than 1 μg/mL); MIC (strain ECL1057 Enterobacter cloacae (NDM-1, TEM-1, CTX-M-15)): Z (MIC of greater than 10 μg/mL); MIC (strain ECL1058 Enterobacter cloacae (KPC-3, SHV-11, TEM-1)): X (MIC of less than 1 μg/mL); MIC (strain ECL1059 Enterobacter cloacae (KPC-3, SHV-12, TEM-1)): X (MIC of less than 1 μg/mL); MIC (strain ECL1061 Enterobacter cloacae (KPC-3, Hyper AmpC expression)): Y (MIC of 1 μg/mL to 10 μg/mL); MIC (strain ECL1082 Enterobacter cloacae (VIM-1)): Y (MIC of 1 μg/mL to 10 μg/mL); MIC (strain ECL1084 Enterobacter cloacae (CTX-M-15; ACT-16; NDM-1)): X (MIC of less than 1 μg/mL); MIC (strain ECL1085 Enterobacter cloacae (SHV-31(2be), TEM-1(2b); CTX-M-15; NDM-1)): X (MIC of less than 1 μg/mL); MIC (strain ECL1086 Enterobacter cloacae (VIM-31, OXA-48(c))): Y (MIC of 1 μg/mL to 10 μg/mL); MIC (strain ECL1087 Enterobacter cloacae (VIM-1)): Y (MIC of 1 μg/mL to 10 μg/mL); MIC (strain ECL1088 Enterobacter cloacae (TEM-1(2b); CTX-M-14; ACT-type; VIM-1)): Y (MIC of 1 μg/mL to 10 μg/mL); MIC (strain ECL1089 Enterobacter cloacae (ACT-type; IMP-1)): Z (MIC of greater than 10 μg/mL); MIC (strain ECL1090 Enterobacter cloacae (TEM-1(2b); CTX-M-22; ACT-type; IMP-8)): Y (MIC of 1 μg/mL to 10 μg/mL); MIC (strain ECL1091 Enterobacter cloacae (VIM-1)): Y (MIC of 1 μg/mL to 10 μg/mL); MIC (strain ECL1092 Enterobacter cloacae (TEM-OSBL(2b); ACT-32; VIM-1)): X (MIC of less than 1 μg/mL); MIC (strain ECL1093 Enterobacter cloacae (TEM-OSBL(2b); ACT-32; VIM-1)): X (MIC of less than 1 μg/mL); MIC (strain ECL1094 Enterobacter cloacae (VIM-1)): Y (MIC of 1 μg/mL to 10 μg/mL); MIC (strain ECL1096 Enterobacter cloacae (CMY-4, VIM-4, OXA-48(c))): X (MIC of less than 1 μg/mL); MIC (strain ECL1097 Enterobacter cloacae (SHV-31(2be), TEM-OSBL(2b); CTX-M-15; ACT-31; NDM-1)): X (MIC of less than 1 μg/mL); MIC (strain ECL1098 Enterobacter cloacae (TEM-OSBL(2b); DHA-1; ACT-16; NDM-1)): X (MIC of less than 1 μg/mL); MIC (strain KP1001 Klebsiella pneumoniae (KPC TEM SHV)): Y (MIC of 1 μg/mL to 10 μg/mL); MIC (strain KP1002 Klebsiella pneumoniae (KPC TEM SHV)): X (MIC of less than 1 μg/mL); MIC (strain KP1003 Klebsiella pneumoniae (KPC TEM SHV)): X (MIC of less than 1 μg/mL); MIC (strain KP1004 Klebsiella pneumoniae (KPC-2, TEM-1, SHV-11)): X (MIC of less than 1 μg/mL); MIC (strain KP1008 Klebsiella pneumoniae (KPC-2)): X (MIC of less than 1 μg/mL); MIC (strain KP1014 Klebsiella pneumoniae (VIM-1, TEM, SHV)): X (MIC of less than 1 μg/mL); MIC (strain KP1054 Klebsiella pneumoniae (VIM-1, SHV-11)): X (MIC of less than 1 μg/mL); MIC (strain KP1059 Klebsiella pneumoniae (VIM-1, SHV-11)): Y (MIC of 1 μg/mL to 10 μg/mL); MIC (strain KP1061 Klebsiella pneumoniae (KPC-3, SHV-11, TEM-1)): X (MIC of less than 1 μg/mL); MIC (strain KP1064 Klebsiella pneumoniae (KPC-2, SHV-11, TEM-1)): Y (MIC of 1 μg/mL to 10 μg/mL); MIC (strain KP1065 Klebsiella pneumoniae (VIM-1, SHV-11)): X (MIC of less than 1 μg/mL); MIC (strain KP1070 Klebsiella pneumoniae (KPC-2, SHV-11, TEM-1)): X (MIC of less than 1 μg/mL); MIC (strain KP1074 Klebsiella pneumoniae (KPC-3, SHV-11, TEM)): Z (MIC of greater than 10 μg/mL); MIC (strain KP1081 Klebsiella pneumoniae (NDM-1, TEM-1, SHV-11, CMY-6, CTX-M-15)): Y (MIC of 1 μg/mL to 10 μg/mL); MIC (strain KP1082 Klebsiella pneumoniae (KPC-2, SHV-1)): X (MIC of less than 1 μg/mL); MIC (strain KP1083 Klebsiella pneumoniae (KPC-3, SHV-1, TEM-1)): X (MIC of less than 1 μg/mL); MIC (strain KP1084 Klebsiella pneumoniae (KPC-3, SHV-11, TEM-1)): Y (MIC of 1 μg/mL to 10 μg/mL); MIC (strain KP1086 Klebsiella pneumoniae (OXA-48, CTX-M-15, TEM, SHV)): Z (MIC of greater than 10 μg/mL); MIC (strain KP1087 Klebsiella pneumoniae (KPC-2, CTX-M-15, SHV-11, TEM-1)): Y (MIC of 1 μg/mL to 10 μg/mL); MIC (strain KP1088 Klebsiella pneumoniae (KPC-3, SHV-11, TEM-1)): X (MIC of less than 1 μg/mL); MIC (strain KP1089 Klebsiella pneumonias (OXA-181, CTX-M-15, TEM, SHV)): Y (MIC of 1 μg/mL to 10 μg/mL); MIC (strain KP1095 Klebsiella pneumoniae (KPC-2 TEM-1 SHV-1)): X (MIC of less than 1 μg/mL); MIC (strain KP1096 Klebsiella pneumoniae (KPC-2 TEM-181 SHV-11)): X (MIC of less than 1 μg/mL); MIC (strain KP1097 Klebsiella pneumonias (IMP-1)): X (MIC of less than 1 μg/mL); MIC (strain KP1098 Klebsiella pneumoniae (IMP-26)): Y (MIC of 1 μg/mL to 10 μg/mL); MIC (strain KP1104 Klebsiella pneumoniae (KPC TEM)): X (MIC of less than 1 μg/mL); MIC (strain KP1105 Klebsiella pneumoniae (KPC TEM SHV)): X (MIC of less than 1 μg/mL); MIC (strain KP1159 Klebsiella pneumoniae (SHV-1(2b); CTX-M-15; IMP-4)): X (MIC of less than 1 μg/mL); MIC (strain KP1160 Klebsiella pneumoniae (SHV-28(2be); CTX-M-15; IMP-26)): X (MIC of less than 1 μg/mL); MIC (strain KP1161 Klebsiella pneumoniae (NDM-1)): X (MIC of less than 1 μg/mL); MIC (strain KP1164 Klebsiella pneumoniae (SHV-12(2be); VIM-1)): X (MIC of less than 1 μg/mL); MIC (strain KP1165 Klebsiella pneumoniae (SHV-11(2b); CTX-M-15; VIM-27)): Z (MIC of greater than 10 μg/mL); MIC (strain KP1166 Klebsiella pneumoniae (SHV-5(2be); VIM-26)): Z (MIC of greater than 10 μg/mL); MIC (strain KP1167 Klebsiella pneumoniae (SHV-12(2be); VIM-1)): X (MIC of less than 1 μg/mL); MIC (strain KP1169 Klebsiella pneumoniae (SHV-11(2b); VIM-1)): X (MIC of less than 1 μg/mL); MIC (strain KP1170 Klebsiella pneumoniae (SHV-11(2b); CTX-M-15; NDM-1)): X (MIC of less than 1 μg/mL); MIC (strain KP1172 Klebsiella pneumoniae (SHV-31(2be); DHA-1; VIM-1)): X (MIC of less than 1 μg/mL); MIC (strain KP1173 Klebsiella pneumoniae (TEM-33(2br); CTX-M-15; IMP-1)): X (MIC of less than 1 μg/mL); MIC (strain KP1174 Klebsiella pneumoniae (CTX-M-14; IMP-1)): X (MIC of less than 1 μg/mL); MIC (strain KP1175 Klebsiella pneumoniae (SHV-OSBL(2b); VIM-1)): X (MIC of less than 1 μg/mL); MIC (strain KP1177 Klebsiella pneumoniae (SHV-OSBL(2b), TEM-OSBL(2b); CTX-M-15; NDM-1)): X (MIC of less than 1 μg/mL); MIC (strain KP1178 Klebsiella pneumoniae (SHV-OSBL(2b;) TEM-OSBL(2b); CTX-M-15; NDM-1)): X (MIC of less than 1 μg/mL); MIC (strain KP1179 Klebsiella pneumoniae (SHV-12(2be), TEM-OSBL(2b); CTX-M-15; NDM-7)): X (MIC of less than 1 μg/mL); MIC (strain KP1180 Klebsiella pneumoniae (SHV-OSBL(2b), TEM-OSBL(2b); CTX-M-15; DHA-1; IMP-26)): X (MIC of less than 1 μg/mL); MIC (strain KP1181 Klebsiella pneumoniae (SHV-OSBL(2b); CTX-M-15; IMP-26)): X (MIC of less than 1 μg/mL); MIC (strain KP1183 Klebsiella pneumoniae (SHV-OSBL(2b), TEM-OSBL(2b); CTX-M-15; NDM-1)): X (MIC of less than 1 μg/mL); MIC (strain KP1184 Klebsiella pneumoniae (SHV-OSBL(2b); IMP-1)): X (MIC of less than 1 μg/mL); MIC (strain KP1185 Klebsiella pneumoniae (SHV-OSBL(2b), TEM-OSBL(2b); IMP-4)): Y (MIC of 1 μg/mL to 10 μg/mL); MIC (strain KP1186 Klebsiella pneumoniae (CTX-M-15; NDM-1)): Y (MIC of 1 μg/mL to 10 μg/mL); MIC (strain KP1187 Klebsiella pneumoniae (SHV-55(2be), TEM-OSBL(2b); CTX-M-15; NDM-1)): X (MIC of less than 1 μg/mL); MIC (strain KP1188 Klebsiella pneumoniae (SHV-OSBL(2b); CTX-M-15; NDM-1)): Y (MIC of 1 μg/mL to 10 μg/mL); MIC (strain KP1189 Klebsiella pneumoniae (TEM-OSBL(2b); CTX-M-15; CTX-M-27; NDM-1)): X (MIC of less than 1 μg/mL); MIC (strain KPM1123 Klebsiella pneumoniae (KPC-2 TEM SHV)): X (MIC of less than 1 μg/mL); MIC (strain KPM1202 Klebsiella pneumoniae (KPC SHV TEM)): X (MIC of less than 1 μg/mL); MIC (strain KPM1203 Klebsiella pneumoniae (KPC SHV TEM)): X (MIC of less than 1 μg/mL); MIC (strain KPM1344 Klebsiella pneumoniae (VIM-1)): X (MIC of less than 1 μg/mL); MIC (strain KPM1345 Klebsiella pneumoniae (VIM-1 SHV)): X (MIC of less than 1 μg/mL); MIC (strain KPM1347 Klebsiella pneumoniae (NDM-1 SHV CTX-M-15)): X (MIC of less than 1 μg/mL); MIC (strain KX1017 Klebsiella oxytoca (KPC-2, OXA-2, SHV-30)): X (MIC of less than 1 μg/mL); MIC (strain KX1018 Klebsiella oxytoca (KPC-2, SHV-40, OXY-1)): X (MIC of less than 1 μg/mL); MIC (strain KX1019 Klebsiella oxytoca (KPC-2, OXA-2)): X (MIC of less than 1 μg/mL); MIC (strain PM1024 Proteus mirabilis (TEM-1(2b); CMY-16; VIM-1)): X (MIC of less than 1 μg/mL); MIC (strain PM1026 Proteus mirabilis (DHA-1; IMP-26)): X (MIC of less than 1 μg/mL); MIC (strain PM1027 Proteus mirabilis (VIM-5)): X (MIC of less than 1 μg/mL); MIC (strain SM1023 Serratia marcescens (VIM-4)): Y (MIC of 1 μg/mL to 10 μg/mL)
